{
  "source": "patent US6413775B1",
  "about": "“Polyamine analog-activated SSAT gene therapy” (Health Research, Inc., priority 1999, dated 2002)",
  "key": {"SSAT mRNA": {"system": "SSAT mRNA", "assay": "Northern blot analysis of SSAT mRNA in clone H-10 cells ±Dox treated with DENSPM", "assay_type": "cell-based, human", "settings": "for SSAT mRNA / SSAT Effects: mRNA (fold): 48 h; for SSAT mRNA: relative to closed untreated = 1; for SSAT Effects: mRNA (fold): DENSPM 10 μM", "description": "(§1) A MCF-7 breast carcinoma cell line stably transfected with a tetracycline-off transfection system was purchased from Clontech Laboratories Inc. (Palo Alto, Calif.). The cells were cultured in Dulbecco's Modified Eagle's Medium (DMEM; Life Technologies, Gaithersburg, Md.), supplemented with 2 mM glutamine, 10% fetal bovine serum, penicillin at 100 U/ml, streptomycin at 100 U/ml and the antibiotic G418 (Life Technologies) at 100 μg/ml at 37° C. in the presence of 5% CO2.Cells were harvested by trypsinization and counted electronically (Coulter Model ZM, Coulter Electronics, Hialeah, Fla.). During treatment with polyamines or analogs, 1 mM aminoguanidine was routinely included in the media to prevent enzymatic oxidation to toxic products.\n(§2) Total RNA was extracted with guanidine isothiocyanate and purified by the commonly used cesium chloride gradient centrifugation. Human SSAT cDNA probe (Xiao et al, 1991, supra) was used in Northern blot analyses. ODC and SSAT enzyme activities were assayed as reported earlier (Kramer et al., 1995, J. Biol. Chem. 270, 2124-2132.31). Polyamines, their acetylated derivatives and the polyamine analog DENSPM were measured by high performance liquid chromatography as previously described in detail by Kramer et al. (Kramer et al., 1993, supra), which method is incorporated herein by reference.\n(§3) To enhance the growth inhibitory effects of DENSPM, and to more definitively examine the relationship between SSAT overexpression and cell growth, a cell line was developed in which SSAT expression is conditionally regulated by doxycycline (DOX) an analog of tetracycline which penetrates cells more effectively. MCF-7 cells containing the pTet-Off plasmid were transfected with the PTRE/expression plasmids described above using the Lipofectin method (Notarangelo et al., 1997, Focus, 19, 58-59, incorporated herein by reference). To facilitate clone selection, cells were co-transfected with a pTK-Hyg vector (Clontech Laboratories, Inc.). Transfected clones resistant to […] hygromycin were selected and tested for SSAT enzyme activity and/or mRNA in the presence or absence of 200 ng/ml Dox [+Dox and −Dox, respectively (Clontech Laboratories, Inc)]. In the presence of Dox, SSAT transcription is closed; in the absence of Dox, SSAT transcription is open. […] Clones, which expressed the lowest basal levels of SSAT activity or mRNA in +Dox and the greatest induced level of SSAT activity or mRNA −Dox, were selected for further study. Clones were maintained continuously under +Dox conditions until experiments were initiated.\n(§4) In this table are presented the effects of conditional overexpression on DENSPM induced SSAT mRNA and activity and on polyamine pool depletion. When exposed to 10 μM DENSPM for 24 h, MRNA levels increased by 4-fold in induced cells and remained at ^˜20-fold in uninduced cells. Presumably, some rate-limiting step prevented DENSPM from increasing MRNA beyond the already high levels in these cells."}, "[1]": {"system": "spermidine-spermine N^1-acetyltransferase (SSAT)", "assay": "SSAT enzyme activity in clone H-10 cells ±Dox treated with DENSPM", "assay_type": "cell-based, human", "settings": "for increase in SSAT activity: 10 μM DENSPM; for DENSPM-induced SSAT activity: cells transfected with human SSAT cDNA; for SSAT Activity / SSAT Effects: Activity (fold): 48 h; for SSAT Activity: relative to closed untreated = 1; for SSAT Effects: Activity (fold): DENSPM 10 μM", "description": "as §1, §2, §3, §4"}, "[2]": {"system": "Polyamine pools in H-10 cells", "assay": "Polyamine pools by HPLC in H-10 cells ±Dox treated with DENSPM", "assay_type": "cell-based, human", "settings": "for Polyamine Pools: AcSpd / Polyamine Pools: AcSpm / Polyamine Pools: Put / Polyamine Pools: Spd / Polyamine Pools: Spm: 48 h", "description": "as §1, §2, §4"}, "[3]": {"system": "MCF-7/hSc clone H-10 cells", "assay": "Growth inhibition and dose-response of clone H-10 cells (MCF-7/hSc) ±Dox by DENSPM", "assay_type": "cell-based, human", "settings": "for growth inhibition: by 48 h; for Growth Effects: Onset of cytotoxicity: DENSPM 10 μM", "description": "as §1\n(§5) Relative growth inhibition by DENSPM. The relative antiproliferative effect exerted by DENSPM in H-10 and M-3 cells grown ±Dox was studied over an extended (8 d) time period. As shown in the FIG. 9, H-10-Dox cells were strikingly more sensitive to the antiproliferative action of the DENSPM than +Dox cells. Less than 15% growth inhibition was achieved by 48 h in +Dox H-10 cells compared to >80% in −Dox cells (FIG. 9). […] As a generality, DENSPM-mediated growth inhibition tended to be more cytotoxic during SSAT induction as indicated by the rapid loss in cell number (FIG. 9).\nThe increased sensitivity of SSAT induced H-10 cells to DENSPM was quantitated by dose-response analysis. Cells were grown for 48 h ±Dox and then exposed to increasing concentrations of DENSPM for 48 h (FIG. 10). In the IC50 comparisons, −Dox cells were about approximately 100-fold more sensitive to DENSPM than +Dox cells (i.e. comparing IC50 values of 0.2 and 20 μM, respectively)."}, "[4]": {"system": "MCF-7/mSg clone M-3 cells", "assay": "Growth inhibition of clone M-3 cells (MCF-7/mSg) ±Dox by DENSPM", "assay_type": "cell-based, human", "description": "as §1, §5"}, "[5]": {"system": "ornithine decarboxylase (ODC)", "assay": "ODC enzyme activity in H-10 cells treated with DENSPM", "assay_type": "cell-based, human", "settings": "both +Dox and -Dox cells, irrespective of SSAT induction", "description": "as §1\nas §2, with “reference. […]” for “reference.”"}, "[6]": {"system": "spermidine-spermine N^1-acetyltransferase (SSAT)", "settings": "in many tumor cells; cited from earlier work"}},
  "note": "Where two headings read alike, the source gives them in different places.",
  "data": [
    {"compound": "CCNCCCNCCCNCCCNCC", "note": "[DENSPM, N^1, N^11diethylnorspermine]", "values": [
      {"measurement": "SSAT mRNA levels increase", "setting": "SSAT mRNA; 10 μM DENSPM for 24 h, 'induced cells' as printed", "value": 4, "unit": "fold"},
      {"measurement": "SSAT mRNA levels", "setting": "SSAT mRNA; 10 μM DENSPM for 24 h, 'uninduced cells' as printed", "value": "~20", "unit": "fold"},
      {"measurement": "SSAT mRNA", "setting": "SSAT mRNA; Closed (+Dox) +DENSPM", "value": 8, "unit": "X"},
      {"measurement": "SSAT Effects: mRNA (fold)", "setting": "SSAT mRNA; Closed (Dox 200 ng/ml)", "value": 8, "unit": "X fold"},
      {"measurement": "SSAT mRNA", "setting": "SSAT mRNA; Open (-Dox) +DENSPM", "value": 20, "unit": "X"},
      {"measurement": "SSAT Effects: mRNA (fold)", "setting": "SSAT mRNA; Open (no Dox)", "value": 20, "unit": "X fold"},
      {"measurement": "increase in SSAT activity", "setting": "[1]; +Dox cells", "value": "> 80", "unit": "fold"},
      {"measurement": "DENSPM-induced SSAT activity", "setting": "[1]; +Dox conditions (closed)", "value": "~90", "unit": "fold"},
      {"measurement": "increase in SSAT activity", "setting": "[1]; -Dox cells", "value": "> 1500", "unit": "fold"},
      {"measurement": "DENSPM-induced SSAT activity", "setting": "[1]; -Dox conditions (open)", "value": 1700, "unit": "fold"},
      {"measurement": "SSAT Activity", "setting": "[1]; Closed (+Dox) +DENSPM", "value": 89, "unit": "X"},
      {"measurement": "SSAT Effects: Activity (fold)", "setting": "[1]; Closed (Dox 200 ng/ml)", "value": 89, "unit": "X fold"},
      {"measurement": "SSAT Activity", "setting": "[1]; Open (-Dox) +DENSPM", "value": "1,700 X"},
      {"measurement": "SSAT Effects: Activity (fold)", "setting": "[1]; Open (no Dox)", "value": 1700, "unit": "X fold"},
      {"measurement": "difference in SSAT activity with DENSPM treatment, open vs closed", "setting": "[1]; from Table 3", "value": "about 20 fold"},
      {"measurement": "Polyamine Pools: AcSpd", "setting": "[2]; Closed (+Dox) +DENSPM", "value": 20, "unit": "pmol/10^6 cells"},
      {"measurement": "Polyamine Pools: AcSpm", "setting": "[2]; Closed (+Dox) +DENSPM", "value": 50, "unit": "pmol/10^6 cells"},
      {"measurement": "Polyamine Pools: Put", "setting": "[2]; Closed (+Dox) +DENSPM", "value": 50, "unit": "pmol/10^6 cells"},
      {"measurement": "Polyamine Pools: Spd", "setting": "[2]; Closed (+Dox) +DENSPM", "value": 110, "unit": "pmol/10^6 cells"},
      {"measurement": "Polyamine Pools: Spm", "setting": "[2]; Closed (+Dox) +DENSPM", "value": 750, "unit": "pmol/10^6 cells"},
      {"measurement": "Polyamine Pools: AcSpd", "setting": "[2]; Open (-Dox) +DENSPM", "value": "<5", "unit": "pmol/10^6 cells"},
      {"measurement": "Polyamine Pools: AcSpm", "setting": "[2]; Open (-Dox) +DENSPM", "value": 20, "unit": "pmol/10^6 cells"},
      {"measurement": "Polyamine Pools: Put", "setting": "[2]; Open (-Dox) +DENSPM", "value": "<5", "unit": "pmol/10^6 cells"},
      {"measurement": "Polyamine Pools: Spd", "setting": "[2]; Open (-Dox) +DENSPM", "value": "<5", "unit": "pmol/10^6 cells"},
      {"measurement": "Polyamine Pools: Spm", "setting": "[2]; Open (-Dox) +DENSPM", "value": 65, "unit": "pmol/10^6 cells"},
      {"measurement": "depletion of all three polyamines", "setting": "[2]; by 48 h, both +Dox and -Dox cells", "value": "near total depletion"},
      {"measurement": "growth inhibition", "setting": "[3]; +Dox H-10 cells", "value": "Less than 15%"},
      {"measurement": "IC50", "setting": "[3]; +Dox H-10 cells, grown 48 h ±Dox, then DENSPM 48 h, read-out: IC50 of DENSPM (growth)", "value": 20, "unit": "µM"},
      {"measurement": "growth inhibition", "setting": "[3]; -Dox H-10 cells", "value": "> 80", "unit": "%"},
      {"measurement": "IC50", "setting": "[3]; -Dox H-10 cells, grown 48 h ±Dox, then DENSPM 48 h, read-out: IC50 of DENSPM (growth)", "value": 0.2, "unit": "µM"},
      {"measurement": "IC50", "setting": "[3]; Closed (Dox 200 ng/ml), 48 h, read-out: Growth Effects: IC50 Dose", "value": 200, "unit": "µM"},
      {"measurement": "Growth Effects: Onset of cytotoxicity", "setting": "[3]; Closed (Dox 200 ng/ml)", "value": 4, "unit": "days"},
      {"measurement": "Growth Effects: Onset of cytotoxicity", "setting": "[3]; Open (no Dox)", "value": "immediate"},
      {"measurement": "growth inhibition", "setting": "[4]; induced M-3 cells", "value": 78, "unit": "%"},
      {"measurement": "growth inhibition", "setting": "[4]; uninduced M-3 cells", "value": 25, "unit": "%"},
      {"measurement": "effect on ODC activity", "setting": "[5]", "value": "suppressed ODC activity"},
      {"measurement": "induction of SSAT activity", "setting": "[6]", "value": "exceed 1000 fold"}
    ]}
  ]
}
